Experiments:
[1] = tested on: HCV genotype 1b D168V variant transient replicon; experiment: genotype 1b D168V transient replicon assay; assay type: cell-based, hepatitis C virus (HCV); details: Hepatitis C virus
[2] = tested on: HCV genotype 3a S138T variant transient replicon; experiment: genotype 3a S138T transient replicon assay; assay type: cell-based, hepatitis C virus (HCV); details: Hepatitis C virus
[3] = tested on: HCV genotype 1a D168E variant transient replicon; experiment: genotype 1a D168E transient replicon assay; assay type: cell-based, hepatitis C virus (HCV); details: Hepatitis C virus
[4] = tested on: HCV genotype 3a A166T variant transient replicon; experiment: genotype 3a A166T transient replicon assay; assay type: cell-based, hepatitis C virus (HCV); details: Hepatitis C virus
[5] = tested on: HCV genotype 1a D168V variant transient replicon; experiment: genotype 1a D168V transient replicon assay; assay type: cell-based, hepatitis C virus (HCV); details: Hepatitis C virus
[6] = tested on: HCV genotype 1a R155K variant transient replicon; experiment: genotype 1a R155K transient replicon assay; assay type: cell-based, hepatitis C virus (HCV); details: Hepatitis C virus
[7] = tested on: HCV genotype 1b Con1 stable subgenomic replicon; experiment: genotype 1b Con1 stable replicon assay (luciferase reporter); assay type: cell-based, hepatitis C virus (HCV); details: Hepatitis C virus
[8] = tested on: HCV genotype 1a wild-type transient replicon; experiment: genotype 1a wild-type transient replicon assay; assay type: cell-based, hepatitis C virus (HCV); details: Hepatitis C virus
[9] = tested on: HCV genotype 3a Q168R variant transient replicon; experiment: genotype 3a Q168R transient replicon assay; assay type: cell-based, hepatitis C virus (HCV); details: Hepatitis C virus
[10] = tested on: HCV genotype 1b wild-type transient replicon; experiment: genotype 1b wild-type transient replicon assay; assay type: cell-based, hepatitis C virus (HCV); details: Hepatitis C virus
[11] = tested on: HCV genotype 1a (1a-H77) stable subgenomic replicon; experiment: genotype 1a Huh-7 stable replicon assay (luciferase reporter); assay type: cell-based, hepatitis C virus (HCV); details: Hepatitis C virus, 5% FBS
[12] = tested on: HCV genotype 1b R155K variant transient replicon; experiment: genotype 1b R155K transient replicon assay; assay type: cell-based, hepatitis C virus (HCV); details: Hepatitis C virus
[13] = tested on: HCV genotype 3a wild-type transient replicon; experiment: genotype 3a wild-type transient replicon assay; assay type: cell-based, hepatitis C virus (HCV); details: Hepatitis C virus
[14] = tested on: HCV genotype 3a wild-type stable replicon (chimeric, NS3 gene from genotype 3a isolates); experiment: genotype 3a wild-type stable replicon assay; assay type: cell-based, hepatitis C virus (HCV); details: Hepatitis C virus
HCV R155K variants = details: Bartels 2008, Lu 2004, Zhou 2007; cited from earlier work
HCV = details: after R155K (danoprevir) or R155K/D168V (vaniprevir) variants detected; cited from earlier work

In the case of `CC[C@@H]1C[C@]1(NC(=O)[C@@H]1C[C@@H]2CN1C(=O)[C@H](C(C)(C)C)NC(=O)O[C@@H]1CCC[C@H]1OC/C=C/C(F)(F)c1nc3ccccc3nc1O2)C(=O)NS(=O)(=O)C1(C)CC1` [Example 8], the EC50 [1] is reported as 1 to 100 nM, the EC50 [2] is reported as 100 to 1000 nM and the EC50 [3] is reported as < 1 nM. For the same compound, the EC50 [4] was 100 to 500 nM, the EC50 [5] was 1 to 10 nM and the EC50 [6] was < 0.1 nM. The EC50 [7] was 1 to 10 nM, the EC50 [8] was 0.1 to 1 nM and the EC50 [9] was 100 to 1000 nM. The EC50 [10] was < 1 nM, the EC50 [11] was < 1 nM and the EC50 [12] was < 1 nM. It also gave an EC50 [13] of 10 to 100 nM.
In the case of `CC(C)(C)[C@@H]1NC(=O)O[C@@H]2CCC[C@H]2OC/C=C/C(F)(F)c2nc3ccccc3nc2O[C@@H]2C[C@@H](C(=O)N[C@]3(C(=O)NS(=O)(=O)C4(C)CC4)C[C@H]3C(F)F)N(C2)C1=O` [Example 6], the EC50 [1] is reported as < 1 nM, the EC50 [2] is reported as < 100 nM and the EC50 [3] is reported as < 1 nM. The EC50 [4] was < 100 nM, the EC50 [5] was < 1 nM and the EC50 [6] was < 0.1 nM. For the same compound, the EC50 [7] was 1 to 10 nM, the EC50 [8] was < 0.1 nM and the EC50 [9] was < 100 nM. The EC50 [14] was < 10 nM, the EC50 [10] was < 1 nM and the EC50 [11] was < 1 nM. The EC50 [12] was < 1 nM and the EC50 [13] was < 10 nM.
For `COc1ccc2c(O[C@@H]3C[C@H]4C(=O)N[C@]5(C(=O)O)C[C@H]5/C=C\CCCCC[C@H](NC(=O)OC5CCCC5)C(=O)N4C3)cc(-c3csc(NC(C)C)n3)nc2c1` [BILN 2061], the “resistance conferred by R155K variants” value (HCV R155K variants) is given as “high-level resistance”.
In the case of `CC[C@@H]1C[C@]1(NC(=O)[C@@H]1C[C@@H]2CN1C(=O)[C@H](C(C)(C)C)NC(=O)OCC(C)(C)CCCCc1cccc3c1CN(C3)C(=O)O2)C(=O)NS(=O)(=O)C1CC1` [vaniprevir], the “viral load in patients receiving treatment” value (HCV) is given as “viral load rebound”.
With `CC[C@@H]1C[C@]1(NC(=O)[C@@H]1C[C@@H]2CN1C(=O)[C@H](C(C)(C)C)NC(=O)O[C@@H]1CCC[C@H]1OC/C=C/C(F)(F)c1nc3ccccc3nc1O2)C(=O)NS(=O)(=O)C1CC1` [Example 4] the EC50 [1] was 1 to 100 nM, the EC50 [2] was 100 to 1000 nM and the EC50 [3] was < 1 nM. For the same compound, the EC50 [4] was 100 to 500 nM, the EC50 [5] was 10 to 1000 nM and the EC50 [6] was 0.1 to 1 nM. The EC50 [7] was 1 to 10 nM, the EC50 [8] was 0.1 to 1 nM and the EC50 [9] was 100 to 1000 nM. The EC50 [10] was < 1 nM, the EC50 [11] was < 1 nM and the EC50 [12] was < 1 nM. For the same compound, the EC50 [13] was 10 to 100 nM.
In the case of `CC(C)(C)OC(=O)N[C@H]1CCCCC/C=C\[C@@H]2C[C@@]2(C(=O)NS(=O)(=O)C2CC2)NC(=O)[C@@H]2C[C@@H](OC(=O)N3Cc4cccc(F)c4C3)CN2C1=O` [danoprevir], the “viral load in patients receiving treatment” value (HCV) is given as “Viral load rebound” and the “resistance conferred by R155K variants” value (HCV R155K variants) is given as “high-level resistance”.
In the case of `C=C[C@@H]1C[C@]1(NC(=O)[C@@H]1C[C@@H]2CN1C(=O)[C@H](C(C)(C)C)NC(=O)O[C@@H]1CCC[C@H]1OC/C=C/C(F)(F)c1nc3ccccc3nc1O2)C(=O)NS(=O)(=O)C1CC1` [Example 1], the EC50 [1] is reported as < 1 nM, the EC50 [2] is reported as 100 to 1000 nM and the EC50 [3] is reported as < 1 nM. It also gave an EC50 [4] of 100 to 500 nM, an EC50 [5] of 1 to 10 nM and an EC50 [6] of 0.1 to 1 nM. For the same compound, the EC50 [7] was 1 to 10 nM, the EC50 [8] was 0.1 to 1 nM and the EC50 [9] was 100 to 1000 nM. For the same compound, the EC50 [14] was < 10 nM, the EC50 [10] was < 1 nM and the EC50 [11] was < 1 nM. For the same compound, the EC50 [12] was < 1 nM and the EC50 [13] was 10 to 100 nM.
For `C=C[C@@H]1C[C@]1(NC(=O)[C@@H]1C[C@@H]2CN1C(=O)[C@H](C(C)(C)C)NC(=O)O[C@@H]1CCC[C@H]1OC/C=C/C(F)(F)c1nc3ccccc3nc1O2)C(=O)NS(=O)(=O)C1(C)CC1` [Example 5], the EC50 [1] was < 1 nM, the EC50 [3] was < 1 nM and the EC50 [4] was < 100 nM. For the same compound, the EC50 [5] was < 1 nM, the EC50 [6] was < 0.1 nM and the EC50 [7] was 1 to 10 nM. For the same compound, the EC50 [8] was < 0.1 nM, the EC50 [9] was < 100 nM and the EC50 [14] was < 10 nM. For the same compound, the EC50 [10] was < 1 nM, the EC50 [11] was < 1 nM and the EC50 [12] was < 1 nM. The EC50 [13] was < 10 nM.
With `CC(C)(C)[C@@H]1NC(=O)O[C@@H]2CCC[C@H]2OC/C=C/C(F)(F)c2nc3ccccc3nc2O[C@@H]2C[C@@H](C(=O)N[C@]3(C(=O)NS(=O)(=O)C4CC4)C[C@H]3C(F)F)N(C2)C1=O` [Example 2] the EC50 [1] was 1 to 100 nM, the EC50 [2] was 100 to 1000 nM and the EC50 [3] was < 1 nM. The EC50 [4] was < 100 nM, the EC50 [5] was < 1 nM and the EC50 [6] was < 0.1 nM. For the same compound, the EC50 [7] was 1 to 10 nM, the EC50 [8] was 0.1 to 1 nM and the EC50 [9] was 100 to 1000 nM. The EC50 [14] was < 10 nM, the EC50 [10] was < 1 nM and the EC50 [11] was 1 to 10 nM. The EC50 [12] was < 1 nM and the EC50 [13] was < 10 nM.

Reference: patent US8648037B2, “Macrocyclic proline derived HCV serine protease inhibitors” (priority 2010, dated 2014)
